In patent US12661348B2, “Systemic formulation of a pyridinone derivate for TG2-related diseases” (Dr. Falk Pharma GmbH, priority 2020, dated 2026):

Key:
[1] = Pharmacokinetic in healthy volunteers, multiple dosing over 7 days; assay type: in vivo, human; conditions: up to 100 mg
Experimental: The pharmacokinetic of (S,E)-methyl-7-(1-(2-(2-ethylbutylamino)-2-oxoethyl)-2-oxo-1,2-dihydro-pyridin-3-ylamino)-6-(1-methyl-1H-imidazole-5-carboxamido)-7-oxohept-2-enoate (compound of formula (I)) was investigated in healthy volunteers. Cohorts of 18 subjects each were treated with a daily dose of 10, 20, 50 and 100 mg compound of formula (I), respectively over a time period of 7 days. The determination of said compound in blood plasma was performed by means of a previously validated HPLC-MS/MS method.

[2] = tested on: STAM-model and UUO-model; assay: Dose-activity-relationship in STAM-model and UUO-model; assay type: in vivo, C57BL/6-mouse
Text: The reduction of the fibrotic area in the tissue in comparison to the untreated control animals can be considered as a measure for the anti-fibrotic effect of compound of formula (I) in STAM-model as well as in the UUO-model. For the STAM- and UUO-model the anti-fibrotic effect in dependence of the dose or in dependence of the exposure (Plasma Cmax or Plasma-AUC) are depicted in FIG. 5.

[3] = target: T1, TG2 (Mus musculus, UniProt P21981); assay: Immune-histochemical localisation of the complex of compound and TG2 in kidney tissue of UUO-mice; assay type: in vivo, C57BL/6-mouse; conditions: oral, different dosages, compound-specific antibody
T1 construct: The immune-histochemical localisation of the complex of compound of formula (I) and TG2 in the kidney tissue; from tissue; host or cells: kidney tissue of UUO C57BL/6 mice
T1 sequence (P21981 1-686): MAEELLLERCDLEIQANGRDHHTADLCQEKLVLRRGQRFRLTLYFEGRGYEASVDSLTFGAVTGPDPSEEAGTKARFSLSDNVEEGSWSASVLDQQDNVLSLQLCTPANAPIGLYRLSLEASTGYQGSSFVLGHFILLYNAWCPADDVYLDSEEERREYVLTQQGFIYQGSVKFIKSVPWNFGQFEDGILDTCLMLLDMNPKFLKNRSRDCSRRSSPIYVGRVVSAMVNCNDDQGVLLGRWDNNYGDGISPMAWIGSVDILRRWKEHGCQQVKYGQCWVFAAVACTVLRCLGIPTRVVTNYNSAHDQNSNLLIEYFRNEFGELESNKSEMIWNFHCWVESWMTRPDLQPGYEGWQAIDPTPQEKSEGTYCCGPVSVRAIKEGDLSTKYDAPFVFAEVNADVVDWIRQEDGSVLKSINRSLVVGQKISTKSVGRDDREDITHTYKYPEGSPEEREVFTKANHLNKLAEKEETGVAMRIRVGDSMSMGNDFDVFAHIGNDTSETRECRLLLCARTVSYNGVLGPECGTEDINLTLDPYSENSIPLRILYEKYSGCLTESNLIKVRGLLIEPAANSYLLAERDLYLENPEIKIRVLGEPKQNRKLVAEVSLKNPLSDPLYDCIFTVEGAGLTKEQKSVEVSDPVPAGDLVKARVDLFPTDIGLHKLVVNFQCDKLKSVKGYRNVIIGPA
Experimental: Groups of 8 UUO-mice were treated directly after ligation of the ureter over a time period of two weeks with three different dosages of said compound: 100 mg/kg body weight, 300 mg/kg body weight, and 1000 mg/kg body weight. The daily dosage was administered orally as a suspension at intervals of 8 hours. In a control group, the UUO-mice were treated in same way but merely with the vehicle methyl cellulose. After the end of the treatment, the histopathological investigation of the kidney tissue as well as the determination of the amount of hydroxyproline in the kidney was performed. Furthermore, an immune-histochemical localisation of the complex of (S,E)-methyl-7-(1-(2-(2-ethylbutylamino)-2-oxoethyl)-2-oxo-1,2-dihydro-pyridin-3-ylamino)-6-(1-methyl-1H-imidazole-5-carboxamido)-7-oxohept-2-enoate and TG2 by means of (S,E)-methyl-7-(1-(2-(2-ethylbutylamino)-2-oxoethyl)-2-oxo-1,2-dihydro-pyridin-3-ylamino)-6-(1-methyl-1H-imidazole-5-carboxamido)-7-oxohept-2-enoate-specific antibody was carried out.

[4] = tested on: fibrotic liver or kidney diseases in human; assay: Correlation of the anti-fibrotic effect in the animal model with the human pharmacokinetic; assay type: in vivo; conditions: from fibrotic area versus Cmax or AUC
Experimental: A comparison of the systemic exposure (Cmax, AUC) of (5,E)-methyl-7-(1-(2-(2-ethylbutylamino)-2-oxoethyl)-2-oxo-1,2-dihydro-pyridin-3-ylamino)-6-(1-methyl-1H-imidazole-5-carboxamido)-7-oxohept-2-enoate in dosage effective in the animal experiments with the systemic exposition which is achieved in human allows an estimation of the potential effective dose range.
In addition, the Cmax or AUC being achieved in human by the dosage of 10, 20, and 50 mg compound of formula (I) is shown.

[5] = Pharmacokinetic in the C57BL/6-mouse; assay type: in vivo; conditions: oral suspension
Experimental: The study serves to describe the pharmacokinetics of compound of formula (I) in the C57BL/6-mouse. The dosage was analogous to the dosage in the STAM-model (example 3) or in the UUO-model (example 2) in order to ensure the estimation of the systemic exposition in these models and to correlate the pharmacokinetic data with the efficacy data.
Groups of 12 C57BL/6-mice were treated with three different dosages of compound of formula (I) over a time period of 7 days: 100 mg/kg body weight, 300 mg/kg body weight, and 1000 mg/kg body weight. The daily dosage was administered orally as a suspension in two parts at intervals of 8 hours. On day 7 of treatment three different blood samples per animal were collected. The time points in the group were distributed in such a way that the 24 h-profile was covered with in total 12 different time points (3 animals per time point).
The determination of compound of formula (I) in the blood plasma was performed by means of a previously validated HLPC-MS/MS method.

CCC(CC)CNC(=O)Cn1cccc(NC(=O)[C@H](CC/C=C/C(=O)OC)NC(=O)c2cncn2C)c1=O [compound of formula (I), (S,E)-methyl-7-(1-(2-(2-ethylbutylamino)-2-oxoethyl)-2-oxo-1,2-dihydro-pyridin-3-ylamino)-6-(1-methyl-1H-imidazole-5-carboxamido)-7-oxohept-2-enoate]
systemic exposure in human versus dose [1]: increases linearly | anti-fibrotic effect in dependence of the exposure in plasma ([2]; Plasma Cmax or Plasma-AUC): almost linear correlation | anti-fibrotic effect in STAM-model versus UUO-model ([2]; reduction of the fibrotic area versus control, liver and kidney): the same anti-fibrotic effect | immune-histochemical localisation of the complex of compound and TG2 in the kidney tissue [3]: reach the target site and inhibits the target molecule | human dosage at which the anti-fibrotic effect shown in the animal model can be achieved [4]: 20 mg | bioavailability in the mouse model [5]: measurable
